We go through five compounds from patent US7989466B2, “Methods to inhibit or augment an inflammatory response” (Cambridge Enterprise Limited, priority 1999, dated 2011).

The subject of assay [1] is MCP-1 induced THP-1 migration. Put plainly: THP-1 trans-well migration assay, MCP-1 as chemoattractant. Particulars: for % inhibition at 100 μM versus MCP-1, THP-1 migration: agent with the cells, n.s. = no statistically significant inhibition. Format: cell-based, human. In a few lines:
(§1)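 5×10^4 THP-1 cells with serially diluted peptide in upper chamber, 5 µm filter, recombinant human chemokine 50 ng/ml (5.9 nM) in lower chamber. Incubated 4 h at 37 °C. Migrated cells counted by MTT staining, A595 read against a THP-1 standard curve.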

Assay [2] concerns MIP1α induced THP-1 migration. Nature of the assay: THP-1 trans-well migration assay, MIP1α as chemoattractant. Format: cell-based, human. Particulars: for % inhibition at 100 μM versus MIP1α, THP-1 migration: n.s. = no statistically significant inhibition. In a few lines:
as §1

Assay [3] relates to SDF-1α induced THP-1 migration. Put plainly: THP-1 trans-well migration assay, SDF-1α as chemoattractant. Format: cell-based, human. Particulars: for % inhibition at 100 μM versus SDF-1α, THP-1 migration: n.s. = no statistically significant inhibition. The method, boiled down: as §1
The test system of assay [4] is TGFβ1 induced THP-1 migration. Nature of the assay: THP-1 trans-well migration assay, TGFβ1 as non-chemokine control. Format: cell-based, human. Particulars: for % inhibition at 100 μM versus TGFβ1, THP-1 migration: n.s. = no statistically significant inhibition; for ED50 versus TGFβ1, inhibition of THP-1 migration: n.s. = no statistically significant inhibition (p > 0.05). As for the experimental part: Any method suitable for counting cells can be used, for example, counting with a hemocytometer, incubation of the cells with MTT (see above), or FACS analysis. A negative control assay is also performed, using TGF-β or another non-chemokine chemoattractant (e.g., IL1β or TNFα). To assess whether the agent is cytotoxic, the same concentrations of agent are incubated with THP-1 cells. Agents which 1) are not cytotoxic at levels which inhibit migration, 2) are ineffective at inhibiting the negative control-induced migration, and 3) reduce or inhibit chemokine-induced THP-1 migration, are agents which fall within the scope of the invention.
Chemotaxis was induced in a 96-well disposable chemotaxis chamber fitted with a […] polycarbonate filter (PVP free, ChemoTX, Neuroprobe Inc., Cabin John). […] The framed filter was aligned with the holes in the corner of the filter frame and placed over the wells. […] Peptides were dissolved in Milli Q water and then serially diluted in culture medium. In most cases, the serially diluted peptides were added to the upper compartment of the chemotaxis chamber. The chamber was incubated at 37° C. in a humidified atmosphere of 5% CO2 for 4 hours.
After incubation, the cells were gently removed from the top of the filter with a pipette, 20 μl of 20 mM EDTA in PBS was added into each top well, and the mixture was incubated for 20 minutes at 4° C. The filter was then carefully flushed with media using a gentle flow, and removed. […] The curve was based on a two-fold dilution series of THP-1 cells (top standard 100,000 cells in 29 μl). […] The media was carefully aspirated from each well, and the converted dye was solubilized by 20 μl of DMSO.

Assay [5] has as its target T1, Duffy Antigen Receptor for Chemokines (DARC) (Homo sapiens, UniProt Q16570).
T1 sequence (Q16570 1-336): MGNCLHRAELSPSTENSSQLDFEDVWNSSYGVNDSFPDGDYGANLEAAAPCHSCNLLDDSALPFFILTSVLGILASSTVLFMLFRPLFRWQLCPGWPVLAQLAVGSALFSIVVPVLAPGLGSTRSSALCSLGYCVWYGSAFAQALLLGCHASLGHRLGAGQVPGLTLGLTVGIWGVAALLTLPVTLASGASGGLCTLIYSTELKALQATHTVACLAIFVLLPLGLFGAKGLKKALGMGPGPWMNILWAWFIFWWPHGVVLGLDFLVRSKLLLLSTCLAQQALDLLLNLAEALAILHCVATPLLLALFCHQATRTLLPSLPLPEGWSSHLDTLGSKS
Put plainly: DARC binding: competition with 125I-MCP-1 on red blood cells. Particulars: for DUFFY SELECTIVITY, peptide 2 family: ka for binding to red blood cells divided by the ka for binding THP-1 cells.

[6] abbreviates: ns = not significantly different from control.
Where [7] appears, read: n.s. = no statistically significant inhibition (p > 0.05).

Like-named read-outs stand apart in the source and are kept apart here. Marks after values point to notes of the source that are not given here. Positions of bridges follow the written chain, without caps; N, C: chain ends. Non-standard residues stand in square brackets, D forms with d. Residues, ends and D or L forms follow the SMILES beside them. No end group written: not given here.

By % inhibition is commonly meant the drop in the measured response relative to a control, in per cent. As a reminder, the Kd is the constant that tells how readily two partners part at equilibrium. Lower therefore signals higher affinity. In the case of “SYRRITSSKCPKEAV [peptide 2(1-15)[MCP-1]]”, the “% inhibition at 100 μM versus MCP-1, THP-1 migration” value in assay [1] (100 μM, listed as Peptide 2 (SEQ ID NO: 3)) is reported as “n.s”; in assay [1] (100 μM, listed as Peptide 2[MCP-1]), 19%. Besides, the “ED50 versus MCP-1, inhibition of THP-1 migration” value in assay [1] (agent with the cells in the upper compartment, n.s. = no statistically significant inhibition (p > 0.05)) is “n.s”. Also, the “MCP-1 ED-50” value in assay [1] (setting [6]) is “ns”. The “% inhibition at 100 μM versus MIP1α, THP-1 migration” value in assay [2] was “n.s”. The “ED50 versus MIP1α, inhibition of THP-1 migration” value in assay [2] (setting [7]) is “n.s”. Also, the “MIPIa ED-50” value in assay [2] (setting [6]) is reported as “ns”. The “% inhibition at 100 μM versus SDF-1α, THP-1 migration” value in assay [3] is “n.s”. Moreover, the “ED50 versus SDF-1α, inhibition of THP-1 migration” value in assay [3] (setting [7]) was “n.s”. Moreover, in assay [3] (setting [6]), the “SDF1a ED-50” value is “ns”. In assay [4], the “% inhibition at 100 μM versus TGFβ1, THP-1 migration” value was “n.s”. In addition, the “ED50 versus TGFβ1, inhibition of THP-1 migration” value (from here on “ED50 versus TGFβ1, inhibition”) in assay [4] is on record as “n.s”. Further, the Kd in assay [5] (association (affinity) constant for DARC, red blood cells) was 100 µM; in assay [5] (association constant / affinity for DARC, red blood cells), < 0.5 µM. Also, the “DUFFY SELECTIVITY, peptide 2 family” value in assay [5] was 0.1-0.2; in assay [5] (listed as Pep2[MCP1]), 0.18^d.

Regarding EICADPKQKWVQ [peptide 3(1-12)[MCP-1]], the “% inhibition at 100 μM versus MCP-1, THP-1 migration” value is reported as > 99% in assay [1] (100 μM) and 112% in assay [1] (100 μM, listed as Peptide 3 (SEQ ID NO: 1)). Also, the “% inhibition of MCP-1 induced migration at 100 μM, peptide with the chemokine in the lower compartment” value in assay [1] (100 μM, lower compartment) stood at 17%. The EC50 in assay [1] (agent with the cells in the upper compartment, n.s. = no statistically significant inhibition (p > 0.05), read-out: ED50 versus MCP-1, inhibition of THP-1 migration) turned out to be 8 ± 1 µM; in assay [2] (n.s. = no statistically significant inhibition (p > 0.05), read-out: ED50 versus MIP1α, inhibition of THP-1 migration), 8 ± 1 µM; in assay [3] (n.s. = no statistically significant inhibition (p > 0.05), read-out: ED50 versus SDF-1α, inhibition of THP-1 migration) it was 10 µM. For the same compound, in assay [2], the “% inhibition at 100 μM versus MIP1α, THP-1 migration” value worked out at 99%. The “% inhibition at 100 μM versus SDF-1α, THP-1 migration” value in assay [3] is recorded as 107%. Further, the “% inhibition at 100 μM versus TGFβ1, THP-1 migration” value in assay [4] is on record as “n.s”. Also, the “ED50 versus TGFβ1, inhibition” value in assay [4] is on record as “n.s”. In assay [5] (estimated ka for binding to red blood cells divided by average inhibitory ED50 versus each of the chemokines), the “DUFFY SELECTIVITY (DARC specificity ratio)” value was 1.0.

Turning to `C=CCCCCCCCCC(=O)N[C@H]1CCC(=O)NC1=O` [A-I (NR58.4), [3S]-3-(undec-10-enoylamino)piperidine-2,6-dione], the EC50 in assay [1] (listed as NR58.4 (A-I), read-out: ED50 versus MCP-1 induced chemotaxis of THP-1) came to 0.002 µM; in assay [2] (Homo sapiens, THP-1, read-out: ED50, MIP1α chemotaxis assay) it was 0.0002 µM; in assay [3] (Homo sapiens, THP-1, read-out: ED50, SDF1α chemotaxis assay) it was 0.008 µM.

Regarding `NCCCC[C@H](NC(=O)[C@H](CCC(N)=O)NC(=O)[C@@H](N)CCCCN)C(=O)O` [KQK], in assay [1] (tripeptide at 100 μM, mean ± range of two experiments, dash = no statistically significant reduction in migration), the “percentage inhibition of migration induced by MCP-1” value is listed as 95 ± 8^b %. For the same compound, the “ED50 versus MIP1α, inhibition of THP-1 migration” value in assay [2] (setting [7]) was “n.s”. Besides, the “ED50 versus SDF-1α, inhibition of THP-1 migration” value in assay [3] (setting [7]) is listed as “n.s”. The “percentage inhibition of migration induced by SDF1α” value in assay [3] (tripeptide at 100 μM, mean ± range, dash = no statistically significant reduction in migration) is 29 ± 1%. For the same compound, in assay [4], the “ED50 versus TGFβ1, inhibition” value is recorded as “n.s”.

In the case of `CC[C@@H](C)[C@H]1NC(=O)[C@@H](CCC(N)=O)NC(=O)[C@H](N)CSSC[C@H](C(N)=O)NC(=O)[C@@H](CC(C)C)NC(=O)[C@@H](CC(=O)O)NC(=O)[C@H]2CCCN2C(=O)[C@@H](CCCCN)NC(=O)[C@@H](CCC(N)=O)NC(=O)[C@@H](CCCCN)NC(=O)[C@@H](Cc2c[nH]c3ccccc23)NC1=O` (H-[dC][dQ][dI][dW][dK][dQ][dK][dP][dD][dL][dC]-NH2; disulfide 1-11; N-terminus assumed), in assay [1] (read-out: MCP-1 inhibitory activity in the THP-1 transwell assay), the IC50 was 0.005 to 0.1 µM. For the same compound, in assay [2] (sub-maximal dose of inhibitor in the upper chamber), the “shift of the MIP-1α dose response curve to higher concentrations” value is reported as 5-100 fold. This compound registered a Kd in assay [5] of 90 µM.
